Measured values from the supplement of paper PMC13380429.

Assays:
Conditions in all cases: 72 h
U2OS [1] = test: drug sensitivity score (DSS) for viability; higher = more toxic; extreme values may be limits of the assay
Calu-3 [2] = test: as above
HepG2 [3] = test: as above
Caco-2 [4] = test: as above
Vero E6 [5] = test: as above
U2OS [6] = test: cell viability relative to DMSO; higher = less toxic
Calu-3 [7] = test: as above
HepG2 [8] = test: as above
Caco-2 [9] = test: as above
Vero E6 [10] = test: as above
U2OS [11] = test: relative viability EC50 (midpoint between 100% and the lowest measured viability); higher = less toxic
HepG2 [12] = test: as above
Caco-2 [13] = test: as above
Vero E6 [14] = test: as above
Calu-3 [15] = test: as above

| Structure (SMILES) | drug sensitivity score (U2OS [1]) | drug sensitivity score (Calu-3 [2]) | drug sensitivity score (HepG2 [3]) | drug sensitivity score (Caco-2 [4]) | drug sensitivity score (Vero E6 [5]) | cell viability (U2OS [6]; 1 nM) [%] | cell viability (U2OS [6]; 10 nM) [%] | cell viability (U2OS [6]; 100 nM) [%] | cell viability (U2OS [6]; 1000 nM) [%] | cell viability (U2OS [6]; 10000 nM) [%] | cell viability (Calu-3 [7]; 1 nM) [%] | cell viability (Calu-3 [7]; 10 nM) [%] | cell viability (Calu-3 [7]; 100 nM) [%] | cell viability (Calu-3 [7]; 1000 nM) [%] | cell viability (Calu-3 [7]; 10000 nM) [%] | cell viability (HepG2 [8]; 1 nM) [%] | cell viability (HepG2 [8]; 10 nM) [%] | cell viability (HepG2 [8]; 100 nM) [%] | cell viability (HepG2 [8]; 1000 nM) [%] | cell viability (HepG2 [8]; 10000 nM) [%] | cell viability (Caco-2 [9]; 1 nM) [%] | cell viability (Caco-2 [9]; 10 nM) [%] | cell viability (Caco-2 [9]; 100 nM) [%] | cell viability (Caco-2 [9]; 1000 nM) [%] | cell viability (Caco-2 [9]; 10000 nM) [%] | cell viability (Vero E6 [10]; 1 nM) [%] | cell viability (Vero E6 [10]; 10 nM) [%] | cell viability (Vero E6 [10]; 100 nM) [%] | cell viability (Vero E6 [10]; 1000 nM) [%] | cell viability (Vero E6 [10]; 10000 nM) [%] | relative viability EC50 (U2OS [11]) [µM] | relative viability EC50 (HepG2 [12]) [µM] | relative viability EC50 (Caco-2 [13]) [µM] | relative viability EC50 (Vero E6 [14]) [µM] | relative viability EC50 (Calu-3 [15]) [µM] |
| --- | --- | --- | --- | --- | --- | --- | --- | --- | --- | --- | --- | --- | --- | --- | --- | --- | --- | --- | --- | --- | --- | --- | --- | --- | --- | --- | --- | --- | --- | --- | --- | --- | --- | --- | --- |
| O=C(/C=C\n1cnc(-c2cc(C(F)(F)F)cc(C(F)(F)F)c2)n1)NNc1cnccn1 [selinexor] | 18.8 | 12.5 | 19.9 | 10.4 | 12.9 | 97.1 | 89.9 | 75.8 | 12.7 | 7.6 | 104 | 93.4 | 66 | 57 | 56.4 | 108 | 99.2 | 49.6 | 31.9 | 24.5 | 97 | 87.9 | 89 | 50.4 | 44.2 | 98.9 | 102 | 81.9 | 42.4 | 24.3 | 0.189 | 0.0686 | 0.248 | 0.319 | – |
| NCCC[C@H](N)C(=O)O [ornithine] | 0 | 0 | 0 | 0 | – | 100 | 93.5 | 99.1 | 96.8 | 104 | 103 | 95.6 | 102 | 102 | 104 | 97.3 | 112 | 94.7 | 97.2 | 91.8 | 97.2 | 94.7 | 101 | 101 | 100 | – | – | – | – | – | > 10 | > 10 | > 10 | – | > 10 |
| NCCNCCNCCN [trientine] | 0 | 0 | 0 | 0 | – | 100 | 99.1 | 100 | 97.5 | 104 | 89 | 101 | 99 | 98.7 | 99.9 | 90.9 | 96.6 | 92.1 | 98 | 92.8 | 107 | 106 | 96.4 | 94.4 | 97.6 | – | – | – | – | – | > 10 | > 10 | > 10 | – | > 10 |
| CC(C)[C@H]1C(=O)N[C@@H](CCCNC(=N)N)C(=O)NCC(=O)N[C@@H](CC(=O)O)C(=O)N[C@H](Cc2ccccc2)C(=O)N1C [cilengitide] | – | 2.8 | 0 | 5.8 | 7.7 | – | – | – | – | – | 97.6 | 94.3 | 87.1 | 89.4 | 70.5 | 103 | 103 | 92.6 | 116 | 103 | 98.6 | 95.4 | 96.5 | 80.5 | 41.1 | 98.1 | 101 | 98.8 | 79.8 | 17 | – | > 10 | 1.39 | 1.57 | – |
| NC(=O)c1cnc2[nH]ccc2c1N[C@@H]1[C@@H]2CC3C[C@H]1C[C@@](O)(C3)C2 | 2.6 | – | 2.3 | 0 | 0 | 96.4 | 97.1 | 96.5 | 93.1 | 67.2 | – | – | – | – | – | 113 | 112 | 107 | 109 | 47 | 101 | 101 | 90.5 | 104 | 113 | 95.4 | 97.6 | 99.6 | 107 | 101 | – | 3.87 | > 10 | > 10 | – |
| C=C(CC)C(=O)c1ccc(OCC(=O)O)c(Cl)c1Cl [etacrynic-acid] | 0 | 0 | 0.1 | 0 | – | 98.7 | 101 | 97.8 | 102 | 103 | 90.3 | 94 | 97.5 | 90.5 | 106 | 99.4 | 110 | 105 | 100 | 86.2 | 93.4 | 100 | 96.2 | 84.9 | 97 | – | – | – | – | – | > 10 | > 10 | > 10 | – | > 10 |
| Cc1ccnc(NS(=O)(=O)c2ccc(N)cc2)n1 [sulfamerazine] | 0 | – | 0 | 0 | 0 | 102 | 102 | 94.3 | 97.6 | 100 | – | – | – | – | – | 104 | 94.1 | 95.5 | 109 | 89.3 | 97 | 89.8 | 92 | 98.7 | 98.2 | 104 | 98.5 | 97.8 | 97.8 | 97.8 | > 10 | > 10 | > 10 | > 10 | – |
| CC(C)(C#N)c1ccc(N2C(=O)OCc3cnc4ccc(-c5cnc6ccccc6c5)cc4c32)cc1 | – | 7.1 | 0 | 3.7 | 0.5 | – | – | – | – | – | 110 | 97.3 | 110 | 68.3 | 41.5 | 116 | 113 | 96.4 | 100 | 89.6 | 107 | 108 | 102 | 75 | 77.4 | 109 | 104 | 103 | 97.4 | 84.6 | – | > 10 | > 10 | > 10 | 0.939 |
